The results in this text go back to publication PMC9841519, “Corrole Nanoparticles for Chemotherapy of Castration-Resistant Prostate Cancer and as Sonodynamic Agents for Pancreatic Cancer Treatment” (Journal of Medicinal Chemistry, 2022).

One data set concerns Salmonella strain TA98. Briefly: Ames mutagenicity test.
The test system of another data set is DU-145. The data set is described as follows: MTT assay, antitumor activity (Figure 1 table). To be noted: for IC50: read-out: IC50 (μM) DU-145.
The next data set deals with MDA-MB-231. Briefly: MTT assay, antitumor activity (Figure 1 table). To be noted: for IC50: read-out: IC50 (μM) MDA-MB-231.
A further data set concerns OVCAR-3. Briefly: MTT assay, antitumor activity (Figure 1 table).
The test system of a further data set is SK-MEL-28. The data set is described as follows: MTT assay, antitumor activity (Figure 1 table). To be noted: for IC50: read-out: IC50 (μM) SK-MEL-28.
Data set [1] deals with several human cancer cell lines. Briefly: Screening of corrole derivatives and their NPs on several cancer cell lines. The format is cell-based. To be noted: not consistent upon repeated experiments for 2-Au. The protocol: Multiple corrole derivatives and their NPs were tested on several cancer cell lines. These include several metal chelated derivatives of 5,10,15-tris(pentafluorophenyl)corrole (2-H3) (Figure 1A); β-substituted (iodinated and brominated) corroles and several of its metal chelates (only 4-Au data are shown); different meso substituted corroles and their metal chelates (e.g., 5,15-di(pentafluorophenyl)-10-(imidazolyl)-corrole gallium(III), not presented); and the new synthetically available compound 5,10,15-tris(trifluoromethyl)corrole with different chelated metals (only the gallium(III) chelate 3-Ga is presented in Figure 1A). […] The best candidates from the high molecular weight list of corrole derivatives were the gold complexes 2-Au and 4-Au. […] Though there was an apparent effect on the cell cycle progression of the treated cells, there was no apparent cell death outcome accompanying the cell cycle arrest. Furthermore, the cell population within the culture wells appeared to be dividing freely and completely covering the wells’ surface (data not shown).

The next data set concerns Salmonella strain TA100. Briefly: Ames mutagenicity test. Conditions: S9: Yes.

Procedure for DU-145: (§1) Cell death was evaluated using a colorimetric [3-(4,5-dimethyl-thiazol-2-yl)-2,5-diphenyl-tetrazolium bromide] (MTT) assay. […] Cells intended for US exposure were plated separately. […] After this incubation period, purple formazan salt crystals were formed by a NADP/NADPH-dependent process, in metabolically active cells. […] The absorption of MTT was determined in a Tecan Sunrise Elisa-Reader (Switzerland) at 570/650 nm after automatic subtraction of background readings.
Procedure for MDA-MB-231: as §1
Procedure for OVCAR-3: as §1
Procedure for SK-MEL-28: as §1
Source text for Salmonella strain TA100: (§2) Briefly, the Ames test uses 5 bacterial strains (Salmonella and E. coli) that are exposed to a given compound with and without an enzymatic bioactivation system derived from rodent liver (S9). Each bacterial strain has a different loss of function mutation in a gene essential for the biosynthesis of a required amino acid, histidine in Salmonella or tryptophan in E. coli, such that they cannot grow and form colonies on agar plates lacking these amino acids.
Source text for Salmonella strain TA98: as §2

For the compound `O=[N+]([O-])c1ccc2c(c1)Cc1ccccc1-2` [2-nitrofluorine], the “AMES Result (Positive/Negative)” value in the data set with Salmonella strain TA98 (S9: No) is reported as “Positive”.
For `Fc1c(F)c(F)c(-c2c3nc(c(-c4c(F)c(F)c(F)c(F)c4F)c4ccc([nH]4)c4ccc([nH]4)c(-c4c(F)c(F)c(F)c(F)c4F)c4ccc2[nH]4)C=C3)c(F)c1F` [2-H3, 5,10,15-tris(pentafluorophenyl)corrole], the “IC50 (μM) DU-145” value in the data set on DU-145 was “ambiguous”. In addition, the “IC50 (μM) MDA-MB-231” value in the data set on MDA-MB-231 is “ambiguous”. In the data set with OVCAR-3, the “IC50 (μM) OVCAR-3” value is “ambiguous”. The “IC50 (μM) SK-MEL-28” value with SK-MEL-28 is recorded as “ambiguous”.
Turning to `Fc1c(F)c(F)c(C2=C3C=CC(=N3)C(c3c(F)c(F)c(F)c(F)c3F)=c3ccc4[n]3[Au]3[n]5c2ccc5-c2ccc([n]23)C=4c2c(F)c(F)c(F)c(F)c2F)c(F)c1F` [2-Au], the IC50 was in the range of 0.005 to 4 µM in the data set with DU-145, 0.01 to 1 µM in the data set with MDA-MB-231 and 0.006 to 5 µM with SK-MEL-28.
For the compound `Fc1c(F)c(F)c(C2=C3C=CC(=N3)C(c3c(F)c(F)c(F)c(F)c3F)=c3ccc4[n]3[Au]3[n]5c2c(I)c(I)c5-c2c(I)c(I)c([n]23)C=4c2c(F)c(F)c(F)c(F)c2F)c(F)c1F` [4-Au], in data set [1], the “IC50 values in several human cancer cell lines (in words)” value was “submicromolar to single micromolar”. Besides, the IC50 in the data set with DU-145 is 0.07 to 1 µM; in the data set on MDA-MB-231, 1 to 10 µM; in the data set with OVCAR-3 (read-out: IC50 (μM) OVCAR-3) it was 1 µM; in the data set with SK-MEL-28, 1 to 10 µM.
With `Nc1cccc2cc3ccccc3cc12` [aminoanthracene], the “AMES Result (Positive/Negative)” value with Salmonella strain TA98 (S9: Yes) and with Salmonella strain TA100 was “Positive” in each case.
Regarding `Fc1c(F)c(F)c(C2=C3C=CC(=N3)C(c3c(F)c(F)c(F)c(F)c3F)=c3ccc4[n]3[Mn]3[n]5c2ccc5-c2ccc([n]23)C=4c2c(F)c(F)c(F)c(F)c2F)c(F)c1F` [2-Mn], the IC50 in the data set with DU-145 turned out to be 10 µM; in the data set with MDA-MB-231 it was 4 µM; with SK-MEL-28 it was 5 µM.
